Literature values as cited in US11739076B2, “Compound or its salt thereof targeting fibroblast activation protein, its preparation methods and its uses thereof” (Institute of Nuclear Energy Research Atomic Energy Council, …, priority 2021, dated 2023).

Assays:
tumor = details: in vivo

binding ratio of FAP and DDP4 (FAP and DDP4) | accumulation in the oral mucosa, salivary glands and thyroid glands (tumor; po) | Structure (SMILES) | tumor uptake and tumor-to-tissue ratio (tumor)
45 | – | N#C[C@@H]1CCCN1C(=O)CNC(=O)c1ccnc2ccc(OCCCN3CCN(C(=O)CN4CCN(CC(=O)O)CCN(CC(=O)O)CCN(CC(=O)O)CC4)CC3)cc12 [FAPI-02] | –
750 | – | N#C[C@@H]1CC(F)(F)CN1C(=O)CNC(=O)c1ccnc2ccc(OCCCN3CCN(C(=O)CN4CCN(CC(=O)O)CCN(CC(=O)O)CCN(CC(=O)O)CC4)CC3)cc12 [FAPI-04] | –
– | does not | CN(CCCN1CCN(C(=O)CN2CCN(CC(=O)O)CCN(CC(=O)O)CCN(CC(=O)O)CC2)CC1)c1ccc2nccc(C(=O)NCC(=O)N3CC(F)(F)C[C@H]3C#N)c2c1 [FAPI-46] | excellent tumor uptake and high tumor-to-tissue ratio
